Source: patent publication US20250170258A1, “DOSAGE REGIMEN” (priority 2022, published 2025)

Tested on: pancreatic cancer PAXF 1657 patient-derived xenograft
Assay: pancreatic cancer PAXF 1657 patient-derived xenograft model
Assay type: in vivo
Conditions: PAXF 1657 PDX, tested alone (single agent)
Procedure: Gemcitabine is a nucleoside metabolic inhibitor. It inhibits DNA synthesis by inhibiting the ribonucleotide reductase, cell cycle-specific for the S-phase (also blocks cellular progression at G1/S-phase). It has been used as monotherapy or combination chemotherapy to treat various cancers. […] ADCT-601 and gemcitabine were tested either alone or in combination in the pancreatic cancer PAXF 1657 patient-derived xenograft model.

SMILES: Nc1ccn([C@@H]2O[C@H](CO)[C@@H](O)C2(F)F)c(=O)n1 [gemcitabine]
- anti-tumour activity: limited anti-tumour activity
